# Laboratory results taken from patent US11547681B2, “N-acylethanolamide derivatives and uses thereof” (ELIEM THERAPEUTICS, INC., priority 2016, dated 2023).
# Assay: in vitro
# Conditions: for Measured concentration of analyte PEA, 0 min / Measured concentration of analyte PEA, 10 min / Measured concentration of analyte PEA, 20 min / Measured concentration of analyte PEA, 30 min / Measured concentration of analyte PEA, 60 min / % Remaining of Initial, 0 min / % Remaining of Initial, 10 min / % Remaining of Initial, 20 min / % Remaining of Initial, 30 min / % Remaining of Initial, 60 min / microsomal CLint at 1 μM / half-life at 1 μM / microsomal CLint / half-life: male; for Measured concentration of analyte PEA, 0 min / Measured concentration of analyte PEA, 10 min / Measured concentration of analyte PEA, 20 min / Measured concentration of analyte PEA, 30 min / Measured concentration of analyte PEA, 60 min / % Remaining of Initial, 0 min / % Remaining of Initial, 10 min / % Remaining of Initial, 20 min / % Remaining of Initial, 30 min / % Remaining of Initial, 60 min: 1 μM; for % Remaining of Initial, 0 min / % Remaining of Initial, 10 min / % Remaining of Initial, 20 min / % Remaining of Initial, 30 min / % Remaining of Initial, 60 min / microsomal CLint at 1 μM / half-life at 1 μM / microsomal CLint / half-life: microsomes; for % Remaining of Initial, 0 min: 0 h; for % Remaining of Initial, 30 min: 0.5 h; for % Remaining of Initial, 60 min: 1 h
# Description: (§1) Reaction mixture, minus cofactors, was prepared as described below. Test article was added into the reaction mixture at a final concentration of 1 μM. […] An aliquot of the reaction mixture (without cofactor) was equilibrated in a shaking water bath at 37° C. for 3 minutes. The reaction was initiated by the addition of cofactor, and the mixture was incubated in a shaking water bath at 37° C. Aliquots (100 μL) were withdrawn at 0, 10, 20, 30, and 60 minutes. Test article samples were immediately combined with 300 μL of ice-cold acetonitrile containing 1% formic acid. Control samples were immediately combined with 400 μL of ice-cold 50/50 acetonitrile (ACN)/dH2O containing 0.1% formic acid and internal standard to terminate the reaction. Samples were then mixed and centrifuged to precipitate proteins. Calibration standards were prepared in matched matrix. Samples and standards were assayed by LC-MS/MS using electrospray ionization for both dosed prodrug and expected drug (PEA). Analytical conditions are outlined in Appendix 8-1. Test article concentration at each time point was compared to test article concentration at time 0 to determine the percent remaining at each time point. Half-lives were calculated using GraphPad software, fitting to a single-phase exponential decay equation.
# Reaction mixture, minus cofactors, was prepared as described below. Test article was added into the reaction mixture at a final concentration of 1 μM. […] An aliquot of the reaction mixture (without cofactor) was equilibrated in a shaking water bath at 37° C. for 5 minutes. Reaction was initiated by the addition of cofactor, and the mixture was incubated in a shaking water bath at 37° C. Aliquots (100 μL) were withdrawn at 0, 10, 20, 30, and 60 minutes. Test article samples were immediately combined with 300 μL of ice-cold acetonitrile containing 1% formic acid. Control samples were immediately combined with 400 μL of ice-cold 50/50 acetonitrile (ACN)/dH2O containing 0.1% formic acid and internal standard to terminate the reaction. Samples were then mixed and centrifuged to precipitate proteins. Calibration standards were prepared in matched matrix. Samples and standards were assayed by LC-MS/MS using electrospray ionization for both the dosed prodrug and the expected drug (PEA). Analytical conditions are outlined in Appendix 10-1. Test article concentration at each time point was compared to the test article concentration at time 0 to determine the percent remaining at each time point. Half-lives were calculated using GraphPad software, fitting to a single-phase exponential decay equation.
# as §1, with “minutes. Reaction” for “minutes. The reaction”, “300 μL,” for “300 μL”, “Appendix 13-1.” for “Appendix 8-1.”
# Reaction mixture, minus cofactors, was prepared as described below.
# [1] = CD-1, mouse, calculated value in parentheses
# [2] = CD-1, mouse, Calculated half-life (in parentheses)
SMILES,"Measured concentration of analyte PEA, 0 min (Beagle, dog)","Measured concentration of analyte PEA, 10 min (Beagle, dog)","Measured concentration of analyte PEA, 20 min (Beagle, dog)","Measured concentration of analyte PEA, 30 min (Beagle, dog)","Measured concentration of analyte PEA, 60 min (Beagle, dog)","% Remaining of Initial, 0 min (Beagle, dog)","% Remaining of Initial, 10 min (Beagle, dog)","% Remaining of Initial, 20 min (Beagle, dog)","% Remaining of Initial, 30 min (Beagle, dog)","% Remaining of Initial, 60 min (Beagle, dog)","microsomal CLint at 1 μM (Beagle, dog)","half-life at 1 μM (Beagle, dog, Half-life)","Measured concentration of analyte PEA, 0 min (CD-1, mouse)","Measured concentration of analyte PEA, 10 min (CD-1, mouse)","Measured concentration of analyte PEA, 20 min (CD-1, mouse)","Measured concentration of analyte PEA, 30 min (CD-1, mouse)","Measured concentration of analyte PEA, 60 min (CD-1, mouse)","% Remaining of Initial, 0 min (CD-1, mouse)","% Remaining of Initial, 10 min (CD-1, mouse)","% Remaining of Initial, 20 min (CD-1, mouse)",also measured
CCCCC/C=C\C/C=C\CCCCCCCC(=O)OCCNC(=O)CCCCCCCCCCCCCCC [Compound I-6],0.030 µM,0.087 µM,0.091 µM,0.080 µM,0.084 µM,100%,103%,100%,91%,77%,< 23.1 µL/min/mg,> 60 min,0.022 µM,0.055 µM,0.039 µM,0.041 µM,0.027 µM,100%,84%,74%,"% Remaining of Initial, 30 min (CD-1, mouse): 73%; % Remaining of Initial, 60 min (CD-1, mouse): 61%; microsomal CLint at 1 μM (CD-1, mouse): < 23.1 µL/min/mg; microsomal CLint at 1 μM [1]: 16.4 µL/min/mg; half-life at 1 μM [2]: 84 min; half-life at 1 μM (CD-1, mouse, Half-life): > 60 min"
CC/C=C\C/C=C\C/C=C\C/C=C\C/C=C\CCCC(=O)OCCNC(=O)CCCCCCCCCCCCCCC [Compound I-5],0.025 µM,0.081 µM,0.090 µM,0.087 µM,0.063 µM,100%,84%,75%,75%,67%,< 23.1 µL/min/mg,> 60 min,0.048 µM,0.080 µM,0.052 µM,0.048 µM,0.024 µM,100%,72%,57%,"microsomal CLint at 1 μM (Beagle, dog, calculated value in parentheses): 13.3 µL/min/mg; half-life at 1 μM (Beagle, dog, Calculated half-life (in parentheses)): 104 min; % Remaining of Initial, 30 min (CD-1, mouse): 56%; % Remaining of Initial, 60 min (CD-1, mouse): 55%; microsomal CLint at 1 μM (CD-1, mouse): 23.6 µL/min/mg; half-life at 1 μM (CD-1, mouse, Half-life): 59 min"
"CCCCCCCCCCCCCCCC(=O)NCCOC(=O)CCC(=O)OCC(COC(=O)CCCCCCC)OC(=O)CCCCCCC (stereo not drawn) [Compound I-3, PEA-Succinate-Glycerol-Di-Caprylic]",0.00074 µM,0.023 µM,0.037 µM,0.042 µM,0.053 µM,100%,94%,85%,85%,74%,< 23.1 µL/min/mg,> 60 min,0.0079 µM,0.025 µM,0.025 µM,0.042 µM,0.025 µM,100%,82%,83%,"% Remaining of Initial, 30 min (CD-1, mouse): 60%; % Remaining of Initial, 60 min (CD-1, mouse): 70%; microsomal CLint at 1 μM (CD-1, mouse): < 23.1 µL/min/mg; microsomal CLint at 1 μM [1]: 13.8 µL/min/mg; half-life at 1 μM [2]: 100 min; half-life at 1 μM (CD-1, mouse, Half-life): > 60 min"
"C[C@]12CC[C@H]3[C@@H](CCC4=CC(=O)CC[C@@]43C)[C@@H]1CC[C@@H]2O [Testosterone, testosterone, reference compound]",–,–,–,–,–,–,–,–,–,–,–,–,–,–,–,–,–,–,–,–,"Half-life (control compound, mouse liver microsomes): 2.1 min; microsomal CLint (Beagle, Control Compound, Dog liver microsomes): 41.9 µL/min/mg; microsomal CLint (Beagle, Control compound, Dog liver microsomes): 41.5 µL/min/mg; microsomal CLint (Beagle, Dog liver microsomes, control compound): 41.9 µL/min/mg; microsomal CLint (Beagle, control compound, dog liver microsomes): 59.3 µL/min/mg; half-life (Beagle, Half-life, Control Compound, Dog liver microsomes): 33 min; half-life (Beagle, Half-life, Control compound, Dog liver microsomes): 33 min; half-life at 1 μM (Beagle, Half-life, Dog liver microsomes): 33 min; half-life (Beagle, Half-life, control compound, dog liver microsomes): 23 min; microsomal CLint (CD-1, mouse, Control Compound, Mouse liver microsomes): 444 µL/min/mg; microsomal CLint (CD-1, mouse, Mouse liver microsomes, control compound): 190 µL/min/mg; microsomal CLint (CD-1, mouse, control compound, mouse liver microsomes): 674 µL/min/mg; half-life (CD-1, mouse, Half-life, Control Compound, Mouse liver microsomes): 3.1 min; half-life (CD-1, mouse, Half-life, Control compound, Mouse liver microsomes): 4.9 min; half-life at 1 μM (CD-1, mouse, Half-life, Mouse liver microsomes): 7.3 min"
